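Step 1: Grow cells in 96-well plates. Step 2: Expose to compound for 48 hours at 5 concentrations. Step 3: Interpolate endpoints linearly; if unreached, use highest concentration. GI50: concentration for 50% inhibition of growth.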 Activity calls are given as the source filed them. Cut-off read from the data, not from the text of the source: active = GI50 up to about 1.1 µM and inactive = higher. Square brackets hold non-standard residues; d marks the D form. Peptide text beside a SMILES is read from it.
Tests used:
Test in all cases: NCI tumour cell line growth inhibition, 48 h
DMS-114 = tested on: DMS-114
EKVX = tested on: EKVX
HCT-116 = tested on: HCT-116
HL-60 = tested on: HL-60
HOP-62 = tested on: HOP-62
HT-29 = tested on: HT-29
M14 = tested on: M14
NCI-H23 = tested on: NCI-H23
OVCAR-3 = tested on: OVCAR-3
RPMI-8226 = tested on: RPMI-8226
SK-OV-3 = tested on: SK-OV-3
U-251 = tested on: U-251
UACC-257 = tested on: UACC-257
UO-31 = tested on: UO-31
BT-549 = tested on: BT-549
DU-145 = tested on: DU-145
MCF7 = tested on: MCF7
MDA-MB-435 = tested on: MDA-MB-435
OVCAR-4 = tested on: OVCAR-4

Measured: GI50

CC12CC(=O)NN=C1c1ccccc1C2 (stereo not given)
inactive: DMS-114 > 100 µM | EKVX 98.2 µM | HCT-116 > 100 µM | HL-60 > 100 µM | HOP-62 > 100 µM | HT-29 > 100 µM | M14 > 100 µM | NCI-H23 > 100 µM | OVCAR-3 > 100 µM | RPMI-8226 > 100 µM | SK-OV-3 > 100 µM | U-251 > 100 µM | UACC-257 > 100 µM | UO-31 > 100 µM

N=C(N)NS(=O)(=O)c1ccc(NC(=O)c2ccc3nc4ccccc4c(Nc4ccc(S(=O)(=O)N=C(N)N)cc4)c3c2)cc1
inactive: BT-549 > 100 µM | DU-145 > 100 µM | EKVX > 100 µM | HCT-116 > 100 µM | HL-60 > 100 µM | HOP-62 > 100 µM | HT-29 > 100 µM | M14 > 100 µM | MCF7 > 100 µM | MDA-MB-435 > 100 µM | NCI-H23 > 100 µM | OVCAR-3 > 100 µM | OVCAR-4 > 100 µM | RPMI-8226 > 100 µM | SK-OV-3 > 100 µM | U-251 > 100 µM | UACC-257 > 100 µM | UO-31 > 100 µM

CC(C)(C)c1cc(C(C)(C)C)c2c(c1O)OC(=O)CS2
inactive: BT-549 8.32 µM | DU-145 15.7 µM | EKVX 4.31 µM | HCT-116 3.6 µM | HL-60 3.62 µM | HOP-62 7.13 µM | HT-29 4.34 µM | M14 7.1 µM | MCF7 3.82 µM | MDA-MB-435 3.85 µM | NCI-H23 4.15 µM | OVCAR-3 3.69 µM | OVCAR-4 5.28 µM | RPMI-8226 21.1 µM | SK-OV-3 13.4 µM | U-251 4.78 µM | UACC-257 13.9 µM | UO-31 5.73 µM

NC(=O)c1c(-c2ccccc2)c(-c2ccccc2)cc2c(=O)c3ccccc3[nH]c12
inactive: DMS-114 21.8 µM | EKVX 41.2 µM | HCT-116 14.4 µM | HOP-62 24.2 µM | HT-29 18.9 µM | M14 33.2 µM | NCI-H23 17.5 µM | OVCAR-3 23.1 µM | OVCAR-4 12.5 µM | RPMI-8226 28.4 µM | SK-OV-3 25.3 µM | U-251 31.7 µM | UACC-257 40.6 µM | UO-31 33.7 µM

O=C1C2=C(N[C@@H](c3ccccc3)[C@H](c3ccccc3)N2)C(=O)c2ccccc21
inactive: DMS-114 > 100 µM | HCT-116 > 100 µM | HL-60 > 100 µM | HOP-62 > 100 µM | HT-29 > 100 µM | M14 > 100 µM | NCI-H23 > 100 µM | OVCAR-3 > 100 µM | OVCAR-4 > 100 µM | RPMI-8226 > 100 µM | SK-OV-3 > 100 µM | U-251 > 100 µM | UACC-257 > 100 µM | UO-31 > 100 µM

COC(=O)/C=C/c1cnc2c(c1)oc(=O)n2C
inactive: BT-549 > 100 µM | DU-145 > 100 µM | EKVX > 100 µM | HCT-116 > 100 µM | HL-60 > 100 µM | HOP-62 > 100 µM | HT-29 > 100 µM | M14 > 100 µM | MCF7 > 100 µM | MDA-MB-435 > 100 µM | NCI-H23 > 100 µM | OVCAR-3 > 100 µM | OVCAR-4 > 100 µM | RPMI-8226 > 100 µM | SK-OV-3 > 100 µM | U-251 > 100 µM | UACC-257 > 100 µM | UO-31 > 100 µM

COc1ccc([N+]2=NC(c3ccc([N+](=O)[O-])cc3)=NN(c3ccccc3)C2)cc1
inactive: DMS-114 40.1 µM | EKVX 44.4 µM | HCT-116 46 µM | HL-60 18.6 µM | HOP-62 > 100 µM | HT-29 34 µM | NCI-H23 55.8 µM | OVCAR-3 42.5 µM | OVCAR-4 22.6 µM | RPMI-8226 24.7 µM | U-251 37.3 µM | UACC-257 30.1 µM | UO-31 26.9 µM

N=C(N)NS(=O)(=O)c1ccc(NC(=O)c2cccc3cc4ccccc4nc23)cc1
inactive: DMS-114 97.5 µM | EKVX > 100 µM | HCT-116 19.3 µM | HOP-62 94.2 µM | HT-29 > 100 µM | M14 > 100 µM | NCI-H23 > 100 µM | OVCAR-3 > 100 µM | OVCAR-4 28 µM | RPMI-8226 > 100 µM | SK-OV-3 > 100 µM | U-251 87.7 µM | UACC-257 > 100 µM | UO-31 > 100 µM

O=[N+]([O-])c1ccc(C2=Nn3cnnc3SC2)o1
inactive: DMS-114 10.8 µM | HCT-116 14 µM | HL-60 14.8 µM | HOP-62 38.2 µM | HT-29 11.3 µM | M14 15.1 µM | NCI-H23 > 10 µM | OVCAR-3 17.1 µM | OVCAR-4 > 10 µM | RPMI-8226 14.6 µM | SK-OV-3 > 10 µM | U-251 16.3 µM | UACC-257 15.5 µM | UO-31 21.4 µM

O=C(Nc1ccc([N+](=O)[O-])cc1[N+](=O)[O-])C(=O)C(C(=O)c1ccc(Cl)c(Cl)c1)C1OC(=O)c2ccccc21 (stereo not given)
inactive: DMS-114 18.1 µM | EKVX 22.1 µM | HCT-116 19.4 µM | HL-60 28.9 µM | HOP-62 16.7 µM | HT-29 25.8 µM | M14 > 10 µM | NCI-H23 17.3 µM | OVCAR-3 27.7 µM | OVCAR-4 42.9 µM | RPMI-8226 25 µM | SK-OV-3 23.2 µM | U-251 30.3 µM | UACC-257 22.6 µM | UO-31 26.3 µM

O=C(/C=C/NC(=O)OCc1ccccc1)OCc1ccccc1
inactive: BT-549 > 100 µM | DU-145 > 100 µM | EKVX > 100 µM | HCT-116 > 100 µM | HL-60 > 100 µM | HOP-62 > 100 µM | HT-29 > 100 µM | M14 > 100 µM | MCF7 > 100 µM | MDA-MB-435 > 100 µM | NCI-H23 > 100 µM | OVCAR-3 > 100 µM | OVCAR-4 > 100 µM | RPMI-8226 > 100 µM | SK-OV-3 32.4 µM | U-251 > 100 µM | UACC-257 > 100 µM | UO-31 32.5 µM

Cc1cc(NS(=O)(=O)c2ccc(NC(=O)c3cccc4c(NNc5ccc(S(N)(=O)=O)cc5)c5ccccc5nc34)cc2)no1
inactive: BT-549 61.5 µM | DU-145 86.5 µM | EKVX 33.4 µM | HCT-116 33.2 µM | HL-60 31 µM | HOP-62 42.4 µM | HT-29 30.9 µM | M14 67.1 µM | MCF7 81.3 µM | MDA-MB-435 75.7 µM | NCI-H23 64.7 µM | OVCAR-3 26.7 µM | OVCAR-4 31.8 µM | RPMI-8226 43.4 µM | SK-OV-3 36.3 µM | U-251 24 µM | UACC-257 > 100 µM | UO-31 36.1 µM

COc1ccc(C(=O)/C=C2\Nc3cccnc3N\C2=C/C(=O)c2ccc(OC)cc2)cc1
inactive: BT-549 18.8 µM | DU-145 19.9 µM | EKVX 20.8 µM | HCT-116 15.2 µM | HL-60 > 100 µM | HOP-62 4.94 µM | HT-29 14.5 µM | M14 20.9 µM | MCF7 14.8 µM | MDA-MB-435 20.3 µM | NCI-H23 13.5 µM | OVCAR-3 14.8 µM | OVCAR-4 2.67 µM | RPMI-8226 42.2 µM | SK-OV-3 13 µM | U-251 14.6 µM | UACC-257 26.7 µM | UO-31 27.4 µM

Cc1cccc(CC(Cc2c(C)cccc2C(=O)O)C(=O)O)c1 (stereo not given)
inactive: BT-549 > 100 µM | DU-145 > 100 µM | EKVX > 100 µM | HCT-116 > 100 µM | HL-60 > 100 µM | HOP-62 > 100 µM | HT-29 > 100 µM | M14 > 100 µM | MCF7 > 100 µM | MDA-MB-435 > 100 µM | NCI-H23 > 100 µM | OVCAR-3 > 100 µM | OVCAR-4 > 100 µM | RPMI-8226 > 100 µM | SK-OV-3 > 100 µM | U-251 > 100 µM | UACC-257 > 100 µM | UO-31 > 100 µM

N=C(N)NCCC[C@H]1NC(=O)[C@@H](CCC(=O)O)NC(=O)[C@@H](CC(=O)O)NC(=O)[C@@H](CCC(=O)O)NC(=O)[C@H](Cc2c[nH]c3ccccc23)NC1=O (cyclo(W[dE][dD][dE][dR]))
inactive: BT-549 > 7.5 µM | DU-145 > 7.5 µM | EKVX > 7.5 µM | HCT-116 > 7.5 µM | HL-60 > 7.5 µM | HOP-62 > 7.5 µM | HT-29 > 7.5 µM | M14 > 7.5 µM | MCF7 > 7.5 µM | MDA-MB-435 > 7.5 µM | NCI-H23 > 7.5 µM | OVCAR-3 > 7.5 µM | OVCAR-4 > 7.5 µM | RPMI-8226 > 7.5 µM | SK-OV-3 > 7.5 µM | U-251 > 7.5 µM | UACC-257 > 7.5 µM | UO-31 > 7.5 µM

Cc1c(-c2cnccn2)ssc1=S [OLTIPRAZ]
inactive: BT-549 22 µM | DU-145 > 100 µM | EKVX 33.2 µM | HCT-116 54.3 µM | HL-60 61.9 µM | HOP-62 47 µM | HT-29 > 100 µM | M14 > 100 µM | MCF7 > 100 µM | MDA-MB-435 > 100 µM | NCI-H23 88.5 µM | OVCAR-3 99.3 µM | OVCAR-4 > 100 µM | RPMI-8226 > 100 µM | SK-OV-3 35.9 µM | U-251 46 µM | UACC-257 24.5 µM | UO-31 40 µM
